Measured values from US12012410B2, “Substituted pyrazolo[1,5-a]pyrazines for spinal muscular atrophy” (REBORNA BIOSCIENCES, INC., priority 2018, dated 2024).
Counter-ions that a name gives are not always drawn.

Test system: FL-SMN mRNA (SMN transcript containing exons 7 and 8)
Assay: Live-cell assay to measure changes in FL-SMN mRNA levels (qPCR) after exposure to the compounds
Format: cell-based, human
Conditions: fibroblasts derived from patients SMA (GM03813); 24 hours incubation
Procedure, shortened: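 SMA patient fibroblasts (GM03813) in DMEM/10% FBS were treated with compound (0.1% DMSO final) for 24 h. FL-SMN and Δ7 mRNA were measured by RT-qPCR against oligo DNA standard curves and normalised to GAPDH. Values are % of the DMSO control, binned by asterisk from ≥100% to ≥180%.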

Cc1cn2cc(-c3cc(F)c4nc(C5CCN(C6CC6)CC5)[nH]c(=O)c4c3)cc2cn1 [Example 33, 2-(1-cyclopropylpiperidin-4-yl)-8-fluoro-6-(3-methylpyrrolo[1,2-a]pyrazin-7-yl)quinazolin-4(3H)-one acetate]
Percentage of increase (FL-SMN mRNA standardized against GAPDH, DMSO control set as 100%): *** (equal to or higher than 150% but lower than 180%)

Cc1nc2ccc(-c3ccc4nc(C5CCN(C6CC6)CC5)[nH]c(=O)c4c3)cc2o1 [Example 83, 2-(1-cyclopropylpiperidin-4-yl)-6-(2-methyl-1,3-benzoxazol-6-yl)quinazolin-4(3H)-one]
Percentage of increase (FL-SMN mRNA standardized against GAPDH, DMSO control set as 100%): ** (equal to or higher than 120% but lower than 150%)

Cc1cn2nc(-c3nc4ccc(N5CCNCC5)cc4c(=O)[nH]3)cc2c(C)n1 [Example 16, 2-(4,6-Dimethylpyrazolo[1,5-α]pyrazin-2-yl)-6-(piperazin-1-yl)quinazolin-4(3H)-one dihydrochloride]
Percentage of increase (FL-SMN mRNA standardized against GAPDH, DMSO control set as 100%): **** (equal to or higher than 180%)

Cc1cn2cc(-c3cc(C)c4nc(C5CCN(C6CC6)CC5)[nH]c(=O)c4c3)cc(F)c2n1 [Example 40, 2-(1-cyclopropylpiperidin-4-yl)-6-(8-fluoro-2-methylimidazo[1,2-a]pyridin-6-yl)-8-methylquinazolin-4(3H)-one]
Percentage of increase (FL-SMN mRNA standardized against GAPDH, DMSO control set as 100%): **** (equal to or higher than 180%)

Cc1ccc(-c2nc3ccc(C4CCN(C)CC4)cc3c(=O)[nH]2)c(=O)n1C [Example 44, 2-(1,6-dimethyl-2-oxo-1,2-dihydropyridin-3-yl)-6-(1-methylpiperidin-4-yl)quinazolin-4(3H)-one]
Percentage of increase (FL-SMN mRNA standardized against GAPDH, DMSO control set as 100%): ** (equal to or higher than 120% but lower than 150%)

Cc1cn2nc(-c3nc4ccc(N5CCN(C)CC5)cc4c(=O)[nH]3)cc2c(C)n1 [Example 6, 2-(4,6-Dimethylpyrazolo[1,5-α]pyrazin-2-yl)-6-(4-methylpiperazin-1-yl)quinazolin-4(3H)-one dihydrochloride]
Percentage of increase (FL-SMN mRNA standardized against GAPDH, DMSO control set as 100%): **** (equal to or higher than 180%)

Cc1cn2cc(-c3ccc4nc(C5CCN(C6CC6)CC5)[nH]c(=O)c4c3)cc2cn1 [Example 32, 2-(1-cyclopropylpiperidin-4-yl)-6-(3-methylpyrrolo[1,2-a]pyrazin-7-yl)quinazolin-4(3H)-one]
Percentage of increase (FL-SMN mRNA standardized against GAPDH, DMSO control set as 100%): **** (equal to or higher than 180%)

Cc1nc2ccc(-c3nc4cc(C)c(C5CCN(C)CC5)cc4c(=O)[nH]3)cc2o1 [Example 41, 7-methyl-2-(2-methyl-1,3-benzoxazol-6-yl)-6-(1-methylpiperidin-4-yl)quinazolin-4(3H)-one]
Percentage of increase (FL-SMN mRNA standardized against GAPDH, DMSO control set as 100%): * (equal to or higher than 100% but lower than 120%)
